Data taken from patent US20140206624A1, “TREATMENT OF LEUKEMIA” (THE BRIGHAM AND WOMEN'S HOSPITAL, INC., priority 2011, published 2014).

Experiments:
Assay type in all cases: in vivo, mouse
[1] = tested on: c-Jun, FoxO3 phosphorylation; assay: Western blot of BM cells from mice that succumbed to AML; settings: pI-pC-treated Mx1-Cre+ mice that died of AML despite deletion of FoxO1/3/4
Excerpt: BM cells recovered from mice that succumbed to control or myrAKT-expressing MLL-AF9-induced AML (refer to FIG. 10G) were subjected to western blot with antibodies that specifically recognize AKT, Tubulin or the phosphorylated forms of FoxO3 (pFoxO3^S256) c-JUN (pc-JUN^S63).
BM cells recovered from mice that succumbed MLL-AF9-induced AML (refer to FIG. 5F) that were wild type or null for FoxO1/3/4 were subjected to western blot with antibodies that specifically recognize AKT, Tubulin or the phosphorylated forms of FoxO3 (pFoxO3^S256) c-JUN (pc-JUN^S63).
Based on the observation that the JNK/c-JUN signaling pathway is activated in response to FOXO inhibition (directly or via AKT activation), whether the activation of this pathway was also initiated in vivo was examined. To this end, the phosphorylation status of c-Jun in BM cells of saline and pI-pC-treated FoxO1/3/4^floxed; Mx1-Cre+; MLL-AF9 mice (FIG. 9F) that developed overt AML was examined. Enhanced pc-Jun^Ser63 in 75% of mice that died of AML despite efficient deletion of FoxO1/3/4 (FIGS. 13A and 10C-10F) was observed. The phosphorylation status of BM cells derived from control and myrAKT-expressing leukemic mice from FIG. 10H was evaluated.

MLL-AF9 induced AML [2] = assay: MLL-AF9 BMT assay, leukemic burden (spleen weight, WBC); settings: FoxO1/3/4 floxed
Experimental: MLL-AF9-positive FoxO1/3/4^floxed murine bone marrow (BM) cell recovered from a leukemic primary recipient mousecarrying the Mx1-Cre transgene (Mx1-Cre+) or not (Mx1-Cre−) were transplanted into sub-lethally irradiated secondary recipient mice. Fourteen days following transplant 50% of both Mx1-Cre+ and Mx1-Cre− mice were administered pI-pC and the remaining 50% of mice from each condition were given saline. At the first sign of leukemia all mice from each Mx1-Cre condition status were euthanized (Day 29 for Mx1-Cre−(saline and pI-pC treated) and Day 39 for Mx1-Cre+ (saline & pI-pC-treated)).
(§1) After transduction, infected cells were transplanted into lethally irradiated (2 doses of 450rad gIR separated by 12 hours) F1 FVB/C57/Bl6 mice. Recipient mice developed leukemia within 70-80 days with a median survival of 77 days. Mononuclear BM cells recovered from leukemic mice were then transplanted into secondary sub-lethally irradiated recipients. Fourteen days following transplant, secondary recipients were administered intra-peritoneally three doses of saline or 12.5 mg/kg pI-pC (GE Healthcare Life Sciences) every 2 days. Mice were then monitored for external (i.e. moribund) and internal (white blood cell counts) signs of leukemia.
To address whether FoxO1/3/4 are essential to maintain MLL-AF9 induced AML in vivo, a MLL-AF9 bone marrow transplant (BMT) assay was used in a mouse bearing homozygous Lox-P flanked (floxed) alleles of FoxO1/3/4 and the interferon-inducible Mx1-Cre transgene (FoxO1/3/4^floxed; Mx1-Cre+; MLL-AF9). MLL-AF9 transformed FoxO1/3/4^floxed BM cells without the Mx1-Cre transgene (FoxO1/3/4^floxed; Mx1-Cre−; MLL-AF9) were used as controls. Leukemia cells from each context (recovered from primary recipients displaying frank leukemia) were harvested and transplanted into sub-lethally irradiated recipients. Fourteen days post-transplant, secondary recipients receiving FoxO1/3/4^floxed; Mx1-Cre+; MLL-AF9 cells or FoxO1/3/4^floxed; Mx1-Cre−; MLL-AF9 controls were either administered polyinosine-polycytidyline (pI-pC) to induce excision of FoxO1/3/4 floxed alleles or saline control (FIG. 9A). At the first presentation of AML, all mice from each group (Mx1-Cre− versus Mx1-Cre+) were euthanized and assessed for leukemic burden as defined by spleen weight and peripheral white blood cell (WBC) counts. […] In contrast, pI-pC-treated FoxO1/3/4^floxed; Mx1-Cre+; MLL-AF9 transplant mice retained normal spleen weights and WBC counts (FIGS. 9B-D and 10A).

MLL-AF9 induced AML [3] = assay: MLL-AF9 BMT assay, WBC monitoring and survival/latency
Excerpt: WBC analysis of peripheral blood collected every 4-14 days post-transplant from Mx1-Cre+ saline and pI-pC-treated mice. Data is independent from Panel C (n=4).
Kaplan-Meier survival curve analysis of recipient mice Mx1-Cre− transplanted and treated as described above; n=6, p=0.6899.
Kaplan-Meier survival curve analysis of recipient mice Mx1-Cre+ transplanted and treated as described above. (p=0.0009; n=10).
as §1
To distinguish whether disrupting FoxO1/3/4 expression eliminated MLL-AF9 leukemia or merely delayed the onset, FoxO1/3/4^floxed; Mx1-Cre−; MLL-AF9 and FoxO1/3/4^floxed; Mx1-Cre+; MLL-AF9 leukemic cells were separately transplanted into sub-lethally irradiated recipients. Fourteen days post-transplant, mice were administered either pI-pC or saline and subsequently monitored daily for clinical signs of leukemia. Peripheral blood from recipient mice was collected and analyzed for WBC counts every 4-14 days. Mice were euthanized upon displaying external morbidity and/or elevated WBC counts. […] However, despite efficient excision of FoxO1/3/4 (FIGS. 10C-10F) the majority of mice eventually succumbed to leukemia (FIG. 9F).

FoxO1, FoxO3, FoxO4 = assay: Excision efficiency (Real Time PCR, western blot) in BM
Excerpt: RNA recovered from BM was converted to cDNA and then analyzed for FoxO1 (FIG. 10C.), FoxO3 (FIG. 10D.), FoxO4 (FIG. 10E.) and GAPDH expression by quantitative Real Time PCR. Each FoxO gene expression is normalized with GAPDH expression.
BM recovered from one saline-treated FoxO1/3/4^floxed; MLL-AF9; Mx1-Cre+ mouse (lane 1) five FoxO1/3/4^floxed; MLL-AF9; Mx1-Cre+ mice treated with pI-pC (lanes 2-6) that succumbed to AML-related death were subjected to Western blot with FoxO3 (75D8) and Tubulin antibodies.

[4] = Mx1-Cre+, MLL-AF9 mice, pI-pC induces excision of FoxO1/3/4

## polyinosine-polycytidyline [pI-pC]
[1]
  mice with enhanced pc-Jun^Ser63: 75%
MLL-AF9 induced AML [2]; [4]
  WBC counts: normal
  spleen weights: normal
MLL-AF9 induced AML [2]; Mx1-Cre+, MLL-AF9 mice, data not shown
  lymphoid-myeloid ratio in peripheral blood: normal lymphoid-myeloid ratio
MLL-AF9 induced AML [2]; Mx1-Cre−, MLL-AF9 recipients (no excision)
  splenomegaly and leukocytosis: developed splenomegaly and leukocytosis
MLL-AF9 induced AML [3]; Mx1-Cre+ leukemic cells, excision of FoxO1/3/4
  latency for the onset of AML: significantly longer latency
MLL-AF9 induced AML [3]; Mx1-Cre+ mice, blood every 4-14 days
  WBC counts: lower WBC counts than saline-treated controls
MLL-AF9 induced AML [3]; Mx1-Cre+, n=10
  mice disease-free up to 5 months post-excision: 20%
FoxO1, FoxO3, FoxO4; BM RNA
  FOXO1/3/4 expression (quantitative Real Time PCR, normalized with GAPDH): suppression of FOXO1/3/4 expression
FoxO1, FoxO3, FoxO4; BM of Mx1-Cre+ mice that succumbed to AML
  FOXO3 (Western blot): below detection
